Test results reported in patent US10351594B2, “Process for preparing compounds having triple activities of thrombolysis, antithrombosis, and radical scavenging” (Shanghai Lumosa Therapeutics Co., Ltd., priority 2013, dated 2019).
Marks after values point to notes of the source that are not given here.

What was measured:
[1] = test system: formation of thrombus (rat arteriovenous bypass); experiment: Antithrombotic activity via intravenous administration, rat arteriovenous bypass cannula with thread; type: in vivo, male SD rats; conditions: n = 10
Text: A cannula was composed of 3 segments. The middle segment has a length of 80 mm and an inner diameter of 3.5 mm. […] The pre-weighed, 60 mm in length thread was placed in the middle segment of the polyethylene tube. Both ends of the wider tube sheathed the un-narrowed ends of two polyethylene tubes respectively (0.5 mm of the thread was restrained by one of the segment to fix the thread). The cannula was filled with a heparin solution in normal saline (50 IU/kg) through the tip end by using an injector and was ready for use. 200-220 g male SD rats were anesthetized with 20% urethane solution (6 mL/kg, ip). Anesthetized rats were fixed in a supine position, and the left external jugular vein was separated and penetrated with a suture at the proximal and distal ends respectively, and the distal end was ligated. An incision was carefully made on the exposed left external jugular vein, and the tip end without thread-restraining of the bypass cannula prepared as described above was inserted into the proximal end of the open incision in the left external jugular vein. A precise amount of heparin in normal saline (50 IU/kg) was injected through the tip at the other end by using an injector. Then, the injector was replaced, and precise amount of drug was injected by the same way. At this moment, without removing the injector from the ethylene tube, the right common carotid artery was separated, and the proximal end was clipped by an artery clip. The right common carotid artery was penetrated with a suture at the proximal and distal ends respectively, and the distal end was ligated. An incision was carefully cut across the right common carotid artery near the artery clip. The injector was pulled out of the polyethylene tube through the tip, and the tip of the polyethylene tube was then inserted into the proximal end of the artery incision. Both ends of the bypass cannula were fixed to the artery or vein with #4 sutures. The artery clip was then removed to allow blood to flow from the artery to the vein through the bypass cannula. A rat arteriovenous bypass thrombolysis model was thus established. The process was timed from the beginning of circulation, the thread attached with thrombus was taken out from the bypass cannula after 15 minutes and accurately weighed. The difference in the mass of the thread before and after was determined as the wet weight of the thrombus, which was statistically analyzed and used to evaluate the in vivo antithrombotic activities of the compounds. The wet weight of the thrombus was expressed as average value and standard deviation (x±SD). The drug administration method is intravenous injection. The blank control was normal saline solution, and the dose was 1 mL/kg. The positive control was aspirin, and the dose was 9 mg/kg. The dose of compounds 5Aa-p of the present invention was 0.1 nmol/kg. The method was the same as in example 3. The drug administration method is intravenous injection. The blank control was normal saline solution, and the dose was 3 mL/kg. The positive control was aspirin, and the dose was 9 mg/kg.

[2] = test system: thrombus (rat arteriovenous bypass thrombolysis model); experiment: Thrombolytic activity via intravenous administration, rat arteriovenous bypass thrombolysis model; type: in vivo, male SD rats; conditions: n = 10
Experimental: 200-220 g male SD rats were anesthetized with 20% urethane solution (6 mL/kg, ip). Anesthetized rats were fixed in a supine position, and the right common carotid artery was separated, clamped at the proximal end with an arterial clip, and penetrated with a suture at the proximal and distal ends, respectively. The suture at the distal end is clipped tightly by a hemostatic clamp at the skin/fur. Cannulation was performed at the distal end, the arterial clamp was loosened, and about 1 ml arterial blood was discharged into a 1 mL EP vial. 0.1 mL rat arterial blood was injected into a vertically fixed glass tube (15 mm in length, with an inner diameter of 2.5 mm and an outer diameter of 5.0 mm, sealed with a rubber stopper at the bottom), into which was immediately inserted a thrombus immobilization screw made of stainless steel. […] 40 min after the blood coagulated, the rubber stopper at the bottom of the glass tube was removed, the stem of the thrombus immobilization screw was fixed by forceps, and the thrombus-wrapped thrombus immobilization screw was carefully taken out from the glass tube and precisely weighted.
A bypass cannula was composed of 3 segments. The middle segment was a polyethylene tube having a length of 60 mm and an inner diameter of 3.5 mm. The segments on both ends were similar polyethylene tubes having a length of 100 mm, an inner diameter of 1 mm and an outer diameter of 2 mm, one end of which was pulled to form a tip, with an outer diameter of 1.0 mm (used in inserting into the rat carotid artery or vein), the other end of which was sheathed by a polyethylene tube having a length of 7 mm and an outer diameter of 3.5 mm (thickened, used in inserting into the polyethylene tube of the middle segment). The inner wall of the 3-segment cannula was entirely silylated. The thrombus-wrapped thrombus immobilization screw was placed into the polyethylene tube of the middle segment, and both ends of the tube sheath the thickened ends of two polyethylene tubes. The cannula was filled with a heparin solution in normal saline (50 IU/kg) through the tip end by using an injector and was ready for use.
The left external jugular vein of the rat was separated and penetrated with a suture at the proximal and distal ends respectively, and the distal end was ligated. An incision was carefully made on the exposed left external jugular vein, and the tip of the bypass cannula prepared as described above was inserted into the proximal end of the incision in the left external jugular vein, away from the stem of the thrombus immobilization screw in the middle segment of the bypass cannula (which accommodated the accurately weighed thrombus immobilization screw). A precise amount of heparin in saline (50 IU/kg) was injected through the tip at the other end by using an injector. At this moment, without removing the injector from the polyethylene tube, the tube between the injector and the polyethylene tube was clamped with a hemostatic clamp. The blood flow was stopped by clamping the proximal end of the right common carotid artery with an arterial clip, and an incision was cut carefully across the common carotid artery near the clip. The injector was pulled out of the polyethylene tube through the tip, and the tip of the polyethylene tube was then inserted into the proximal end of the artery incision. Both ends of the bypass cannula were fixed to the artery or vein with #4 sutures.
A scalp needle was used to pass saline solution, a urokinase in saline solution or varied concentrations of the compounds in saline solution through the middle section of the bypass cannula (which accommodated the accurately weighed thrombus immobilization screw) to a position at the proximal vein and away from the thrombus immobilization screw. The artery clip was then removed to allow blood to flow from the artery to the vein through the bypass cannula. A rat arteriovenous bypass thrombolysis model was thus established. […]

stroke rats = experiment: Therapeutic effect in stroke rats (microthrombus injected into the brain, treated at once): Zealonga score and TTC infarction volume; type: in vivo, SD male rats; conditions: for Neural function scores: Zealonga method, 24 hours after awake, n = 9; for Percentage of infarction volume: cerebral infarction, TTC, n = 7
Experimental: SD male rats (280-300 g) were randomly divided to UK positive control group at a dose of 20000 IU/kg, blank control group with normal saline solution, compound control group with PAK at a dose of 5 μmol/kg, and compound 5Ak group at a dose of 1 μmol/kg (high), 0.1 μmol/kg (medium), and 0.01 μmol/kg (low). A 10% chloral hydrate solution (400 mg/kg) was injected intraperitoneally into rats for anesthesia. […] The 10 μl blood drawn was placed in a 1 mL EP vial and kept at RT for 30 min to allow the coagulation of blood and then transferred into a −20° C. refrigerator for 1 hour to allow the formation of solid coagulation. 1 hour later, the blood clots were taken out, 1 mL normal saline was added therein, and then the blood clots were broken into relatively uniform microthrombus by a steel spatula. The microthrombus suspension was then transferred into a 1 mL injector for use. […] The common jugular vein was separated, and then injected with UK at the dose of 20000 IU/kg, normal saline solution, or compound 5Ak at the dose of 1 μmol/kg. The vein was ligated. 3 drops of penicillin was dropped on the wound. The wound was sewed, and animals were waited for awake.
24 hours after the rats were awake, the degree of damage in neural function was evaluated by the Zealonga method. […] The evaluation results were statistically analyzed and subjected to t-test.
After the rats were awake for 24 hours and assessed for their degree of damage in neural function by Zealonga method, they were anesthetized with urethane followed by immediate decapitation and removal of the brain. Brain tissues were kept in a −20° C. refrigerator for 2 hours, and coronal sections of about 2 mm were successively sliced from the prefrontal end for a total of 5 sections and then placed into a 2% TTC solution to incubate without light at 37° C. for 30 min. The color change in brain sections was observed: normal brain tissues were stained red by TTC, while ischemic brain tissues appeared in white. Photographs were taken by using a digital camera and processed with image statistics software, and the volume of infarction in brain tissues and the area of normal brain tissues in the coronal sections were calculated. The ratio of the cerebral infarction volume of each group was statistically calculated and subject to t-test.

[3] = Table 1, control groups 6, PAK, 6 + PAK, dose not given

CC(=O)Oc1ccccc1C(=O)O [Aspirin, aspirin, reference compound]
wet weight of thrombus ([1]; Table 3, Aspirin 9 mg/kg): 46.95 ± 5.21^a mg
wet weight of thrombus ([1]; Table 4, Aspirin 9 mg/kg): 45.62 ± 2.60 mg

urokinase [reference compound]
Weight reduction in thrombus ([2]; Table 1, urokinase 20000 U/kg (1.68 mg/kg) i.v.): 18.95 ± 2.73^a mg
Weight reduction in thrombus ([2]; Table 2, Urokinase 20000 U/kg i.v.): 25.61 ± 3.87 mg
Neural function scores (stroke rats; urokinase 20000 IU/kg): 1.30 ± 0.95^a
Percentage of infarction volume (stroke rats; urokinase 20000 IU/kg): 4.60 ± 2.09%

Pro-Ala-Lys [PAK, reference compound]
Weight reduction in thrombus [2, 3]: 14.17 ± 1.84^a mg
Neural function scores (stroke rats; PAK 5 μmol/kg): 2.20 ± 1.60
Percentage of infarction volume (stroke rats; PAK 5 μmol/kg): 18.36 ± 7.38%

CC1(C)N[C@H](C(=O)N[C@@H](CCCCN)C(=O)O)Cc2cc(O)c(O)cc21 [Compound 6, 3S-6,7-dihydroxy-1,1-dimethyl-1,2,3,4-tetrahydro-isoquinoline-3-acyl-Lys, reference compound]
Weight reduction in thrombus [2, 3]: 13.87 ± 3.07^a mg
